# Reference: patent publication US12441689B2 (EpiVario, Inc., priority 2019, dated 2025)
# pIC50: −log10 of the molar value.
# Target: human ACSS2 protein (Homo sapiens (Human), UniProt Q9NR19)
# Test: ACSS2 Cell-Free Activity Assay (Cell-Free IC50)
# Conditions: 10 nM human ACSS2 protein, 90 minutes at 37 C, pyrophosphatase-coupled, Biomol Green absorbance at 620 nm; read-out: ACSS2 Biochemical IC50
# Description: ACSS2 Cell-Free Activity Assay (Cell-Free IC50)
# Chain of human ACSS2 protein (Q9NR19 whole entry): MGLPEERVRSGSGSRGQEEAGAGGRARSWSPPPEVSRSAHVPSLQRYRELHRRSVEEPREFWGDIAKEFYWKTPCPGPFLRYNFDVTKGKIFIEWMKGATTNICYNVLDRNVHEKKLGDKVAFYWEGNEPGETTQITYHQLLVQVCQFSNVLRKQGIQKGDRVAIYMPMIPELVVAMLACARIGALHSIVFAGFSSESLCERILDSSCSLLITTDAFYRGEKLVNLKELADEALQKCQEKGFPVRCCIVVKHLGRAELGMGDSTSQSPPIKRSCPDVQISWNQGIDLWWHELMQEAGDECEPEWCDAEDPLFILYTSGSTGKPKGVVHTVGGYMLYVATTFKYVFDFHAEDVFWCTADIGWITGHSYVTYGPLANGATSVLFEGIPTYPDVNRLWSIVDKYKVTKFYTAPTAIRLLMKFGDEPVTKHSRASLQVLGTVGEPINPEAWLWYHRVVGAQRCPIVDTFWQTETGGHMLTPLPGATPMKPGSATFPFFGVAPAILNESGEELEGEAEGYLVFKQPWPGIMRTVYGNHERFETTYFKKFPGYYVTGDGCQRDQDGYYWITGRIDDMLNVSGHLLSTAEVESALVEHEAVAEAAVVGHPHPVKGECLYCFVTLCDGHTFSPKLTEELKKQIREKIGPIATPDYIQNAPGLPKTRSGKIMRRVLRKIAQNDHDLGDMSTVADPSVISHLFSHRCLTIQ
row,pIC50,SMILES
1,< 7.00,"Cc1nc(-c2cc(-n3cc(C(=O)Nc4cccc(C(C)(F)F)c4)c(C)n3)ccc2OC(F)F)co1 [Compound 131, N-(3-(1,1-difluoroethyl)phenyl)-1-(4-(difluoromethoxy)-3-(2-methyloxazol-4-yl)phenyl)-3-methyl-1H-pyrazole-4-carboxamide]"
2,< 7.00,"Cc1c(C(=O)Nc2cccc(C(C)(F)F)c2)c(=O)n(-c2ccc3cc[nH]c3c2)n1Cc1ccccc1 [Compound 108, 1-benzyl-N-[3-(1,1-difluoroethyl)phenyl]-2-(1H-indol-6-yl)-5-methyl-3-oxo-pyrazole-4-carboxamide]"
3,< 7.00,"CCc1c(C(=O)Nc2cccc(C(C)(F)F)c2)c(C)nn1-c1ccc(OC(F)F)c(-c2cccnc2)c1 [Compound 152, N-[3-(1,1-difluoroethyl)phenyl]-1-[4-(difluoromethoxy)-3-(3-pyridyl)phenyl]-5-ethyl-3-methyl-pyrazole-4-carboxamide]"
4,< 7.00,"CCC(F)(F)c1cccc(NC(=O)c2cc(-c3ccc(OC(F)F)c(-c4ccccc4)n3)[nH]c2C)c1 [Compound 223, 5-(5-(difluoromethoxy)-6-phenylpyridin-2-yl)-N-(3-(1,1-difluoropropyl)phenyl)-2-methyl-1H-pyrrole-3-carboxamide]"
5,7.00 to 9.00,"Cc1nc(-c2ccc(OC(F)F)c(-c3ccccc3)c2)cnc1C(=O)Nc1cccc(C(C)(F)F)c1 [Compound 135, N-[3-(1,1-difluoroethyl)phenyl]-5-[4-(difluoromethoxy)-3-phenyl-phenyl]-3-methyl-pyrazine-2-carboxamide]"
6,< 7.00,"CCC(F)(F)c1cccc(NC(=O)c2nc(-c3ccc(OC(F)F)c(-c4ccccc4)n3)[nH]c2C)c1 [Compound 260, 2-(5-(difluoromethoxy)-6-phenylpyridin-2-yl)-N-(3-(1,1-difluoropropyl)phenyl)-5-methyl-1 H-imidazole-4-carboxamide]"
7,< 7.00,"CC1=NN(c2ccc(OC(F)F)cc2)C(=O)C1(C)C(=O)Nc1cc(Cl)c(F)c(Cl)c1 (centres unmarked) [Compound 165, N-(3,5-dichloro-4-fluoro-phenyl)-1-[4-(difluoromethoxy)phenyl]-3,4-dimethyl-5-oxo-pyrazole-4-carboxamide]"
8,7.00 to 9.00,"COc1ccc(-c2ncc(C)c(C(=O)Nc3cccc(C(C)(F)F)c3)n2)cc1 [Compound 247, N-(3-(1,1-difluoroethyl)phenyl)-2-(4-methoxyphenyl)-5-methylpyrimidine-4-carboxamide]"
9,7.00 to 9.00,"Cc1nn(-c2ccc(OC(F)F)c(-c3ccncc3)c2)cc1C(=O)Nc1cccc(C(C)(F)F)c1 [Compound 181, N-(3-(1,1-difluoroethyl)phenyl)-1-(4-(difluoromethoxy)-3-(pyridin-4-yl)phenyl)-3-methyl-1H-pyrazole-4-carboxamide]"
10,< 7.00,"Cc1nc(-c2ccc(OC(F)F)cc2)ncc1C(=O)Nc1cccc(C(C)(F)F)c1 [Compound 144, N-[3-(1,1-difluoroethyl)phenyl]-2-[4-(difluoromethoxy)phenyl]-4-methyl-pyrimidine-5-carboxamide]"
11,< 7.00,"Cc1cc(-c2ccccc2)cc(-c2nc(C)cc(C(=O)Nc3cccc(C(C)(F)F)c3)n2)c1 [Compound 219, N-(3-(1,1-difluoroethyl)phenyl)-6-methyl-2-(5-methyl-[1,1’-biphenyl]-3-yl)pyrimidine-4-carboxamide]"
12,< 7.00,"CCC(F)(F)c1cccc(NC(=O)c2nc(-c3ccc(OC(F)F)c(-c4ccccc4)c3)cnc2C)c1 [Compound 117, 6-[4-(difluoromethoxy)-3-phenyl-phenyl]-N-[3-(1,1-difluoropropyl)phenyl]-3-methyl-pyrazine-2-carboxamide]"
13,< 7.00,"CCC(F)(F)c1cccc(NC(=O)c2c(C)nn(-c3ccc(OC)cc3)c2Cl)c1 [Compound 231, 5-chloro-N-(3-(1,1-difluoropropyl)phenyl)-1-(4-methoxyphenyl)-3-methyl-1H-pyrazole-4-carboxamide]"
14,< 7.00,"Cc1nn(-c2ccc(OC(F)F)cc2)c(C)c1C(=O)Nc1cccc(C(C)(F)F)c1 [Compound 184, N-(3-(1,1-difluoroethyl)phenyl)-1-(4-(difluoromethoxy)phenyl)-3,5-dimethyl-1H-pyrazole-4-carboxamide]"
15,< 7.00,"CCC(F)(F)c1cccc(NC(=O)C2CCN(Cc3ccc(OC)cc3)C(c3ccc(OC)cc3)C2O)c1 (centres unmarked) [Compound 275, N-(3-(1,1-difluoropropyl)phenyl)-3-hydroxy-1-(4-methoxybenzyl)-2-(4-methoxyphenyl)piperidine-4-carboxamide]"
16,7.00 to 9.00,"Cc1nn(-c2cc(-c3ccccc3)c(OC(F)F)c(-c3ccccc3)c2)cc1C(=O)Nc1cccc(C(C)(F)F)c1 [Compound 176, N-(3-(1,1-difluoroethyl)phenyl)-1-(2′-(difluoromethoxy)-[1,1′:3′,1″-terphenyl]-5′-yl)-3-methyl-1H-pyrazole-4-carboxamide]"
17,< 7.00,"CCOc1c(C(=O)Nc2cccc(C(C)(F)F)c2)c(C)nn1-c1ccc(OC(F)F)cc1 [Compound 201, N-(3-(1,1-difluoroethyl)phenyl)-1-(4-(difluoromethoxy)phenyl)-5-ethoxy-3-methyl-1H-pyrazole-4-carboxamide]"
18,7.00 to 9.00,"Cc1nn(-c2ccc(OC(F)F)cc2)cc1C(=O)Nc1cccc(C(C)(F)F)c1 [Compound 196, N-(3-(1,1-difluoroethyl)phenyl)-1-(4-(difluoromethoxy)phenyl)-3-methyl-1H-pyrazole-4-carboxamide]"
19,< 7.00,"CCC1(C(=O)Nc2cccc(C(C)(F)F)c2)C(=O)N(c2ccc(OC(F)F)c(-c3ccccc3)c2)N=C1C (centres unmarked) [Compound 100, N-(3-(1,1-difluoroethyl)phenyl)-1-(6-(difluoromethoxy)-[1,1′-biphenyl]-3-yl)-4-ethyl-3-methyl-5-oxo-4,5-dihydro-1H-pyrazole-4-carboxamide]"
20,7.00 to 9.00,"Cc1nn(-c2ccc(OC(F)F)c(-c3cccnc3)c2)c(C)c1C(=O)Nc1cccc(C(C)(F)F)c1 [Compound 179, N-(3-(1,1-difluoroethyl)phenyl)-1-(4-(difluoromethoxy)-3-(pyridin-3-yl)phenyl)-3,5-dimethyl-1H-pyrazole-4-carboxamide]"
21,7.00 to 9.00,"Cc1nn(-c2ccc(OC(F)F)cc2)c(CO)c1C(=O)Nc1cccc(C(C)(F)F)c1 [Compound 194, N-[3-(1,1-difluoroethyl)phenyl]-1-[4-(difluoromethoxy)phenyl]-5-(hydroxymethyl)-3-methyl-pyrazole-4-carboxamide]"
22,< 7.00,"Cc1nc(-c2ccc(OC(F)F)c(-c3ccccc3)c2)c(C)nc1C(=O)Nc1cccc(C(C)(F)F)c1 [Compound 104, N-(3-(1,1-difluoroethyl)phenyl)-5-(6-(difluoromethoxy)-[1,1′-biphenyl]-3-yl)-3,6-dimethylpyrazine-2-carboxamide]"
23,> 9.00,"CC1=NN(c2ccc(OC(F)F)c(-c3cccnc3)c2)C(=O)C1(F)C(=O)Nc1cccc(C(C)(F)F)c1 (centres unmarked) [Compound 206, N-(3-(1,1-difluoroethyl)phenyl)-1-(4-(difluoromethoxy)-3-(pyridin-3-yl)phenyl)-4-fluoro-3-methyl-5-oxo-4,5-dihydro-1H-pyrazole-4-carboxamide]"
24,< 7.00,"Cc1nc(-c2ccc(OC(F)F)c(-c3ccccn3)c2)oc1C(=O)Nc1cccc(C(C)(F)F)c1 [Compound 213, N-(3-(1,1-difluoroethyl)phenyl)-2-(4-(difluoromethoxy)-3-(pyridin-2-yl)phenyl)-4-methyloxazole-5-carboxamide]"
25,7.00 to 9.00,"CNc1c(C(=O)Nc2cccc(C(C)(F)F)c2)c(C)nn1-c1ccc(OC(F)F)cc1 [Compound 162, N-(3-(1,1-difluoroethyl)phenyl)-1-(4-(difluoromethoxy)phenyl)-3-methyl-5-(methylamino)-1H-pyrazole-4-carboxamide]"
26,< 7.00,"Cc1nn(-c2ccc(OC(F)F)cc2)c(C2CCCC2)c1C(=O)Nc1cccc(C(C)(F)F)c1 [Compound 154, 5-cyclopentyl-N-[3-(1,1-difluoroethyl)phenyl]-1-[4-(difluoromethoxy)phenyl]-3-methyl-pyrazole-4-carboxamide]"
27,7.00 to 9.00,"CCC(F)(F)c1cccc(NC(=O)C2C(=O)N(c3cc(CC4CCCCC4)c(OC)c(-c4ccccc4)c3)N=C2C)c1 (centres unmarked) [Compound 128, 1-(5-(cyclohexylmethyl)-6-methoxy-[1,1′-biphenyl]-3-yl)-N-(3-(1,1-difluoropropyl)phenyl)-3-methyl-5-oxo-4,5-dihydro-1H-pyrazole-4-carboxamide]"
28,< 7.00,"CC1=NN(c2ccc(OC(F)F)cc2)C(=O)C1(C)C(=O)Nc1cc(F)cc(Cl)c1 (centres unmarked) [Compound 166, N-(3-chloro-5-fluoro-phenyl)-1-[4-(difluoromethoxy)phenyl]-3,4-dimethyl-5-oxo-pyrazole-4-carboxamide]"
29,7.00 to 9.00,"CCCc1cc(N2N=C(C)C(C(=O)Nc3cccc(C(F)(F)CC)c3)C2=O)cc(-c2ccccc2)c1OC (centres unmarked) [Compound 225, N-(3-(1,1-difluoropropyl)phenyl)-1-(6-methoxy-5-propyl-[1,1’-biphenyl]-3-yl)-3-methyl-5-oxo-4,5-dihydro-1H-pyrazole-4-carboxamide]"

row,SMILES,pIC50
1,"Cc1nn(-c2ccc(OC(F)F)cc2)c(OC(=O)N2CCN(CCO)CC2)c1C(=O)Nc1cccc(C(C)(F)F)c1 [Compound 191, 4-((3-(1,1-difluoroethyl)phenyl)carbamoyl)-1-(4-(difluoromethoxy)phenyl)-3-methyl-1H-pyrazol-5-yl 4-(2-hydroxyethyl)piperazine-1-carboxylate]",7.00 to 9.00
2,"CCC(C)Oc1ccc(N2N=C(C)C(F)(C(=O)Nc3cccc(C(C)(F)F)c3)C2=O)cc1 (centres unmarked) [Compound 207, N-[3-(1,1-difluoroethyl)phenyl]-4-fluoro-3-methyl-5-oxo-1-(4-sec-butoxyphenyl)pyrazole-4-carboxamide]",> 9.00
3,"Cc1nn(-c2ccc(OC(F)F)c(-c3cccnc3)c2)c(OC(=O)N2CCC(N3CCCCC3)CC2)c1C(=O)Nc1cccc(C(C)(F)F)c1 [Compound 190, 4-((3-(1,1-difluoroethyl)phenyl)carbamoyl)-1-(4-(difluoromethoxy)-3-(pyridin-3-yl)phenyl)-3-methyl-1H-pyrazol-5-yl [1,4′-bipiperidine]-1′-carboxylate]",7.00 to 9.00
